Experimental data: patent publication EP4534085A1, “COMPOUNDS FOR USE IN METHODS OF TREATING CANCER” (Scorpion Therapeutics, Inc., priority 2023, dated 2025)
Like-named read-outs stand apart in the source and are kept apart here.

Tests used:
NCI-H3255 (L858R) = assay: L858R human tumour xenograft, tumour growth inhibition; settings: 5-15 mg/kg BID; L858R human tumour xenografts in mice
Description: (§1) A PC-9 derivative with an ex19del/C797S in cis double mutation was engineered by CRISPR knock-in.

MDR1 = biological target: T1, MDR1 (Homo sapiens, UniProt P08183); assay: MDCK-MDR1 efflux; format: in vitro ADME; settings: dog, read-out: MDCK-MDR1 ER
T1 construct: expressed in transfected cells; host or cells: MDCK

human NSCLC cell lines = assay: Human cancer cell line proliferation inhibition (CellTiterGlo); format: cell-based
PC-9 (ex19del) = assay: ex19del human tumour xenograft, tumour growth inhibition
Description: as §1

[1] = test system: Ba/F3 lines expressing the noted EGFR constructs; assay: Ba/F3 proliferation inhibition (CellTiterGlo, 72 hr assay); format: cell-based
[2] = Free CNS penetration (Kp,uu), rat brain slice method; format: in vivo, mice and rats; settings: oral dosing; rat brain slice method for free fraction in brain; osimertinib run in parallel as benchmark
Description: In order to characterise compound A in vitro and in vivo potency and selectivity for C797S-active double-mutant inhibitor vs. EGFR wild type, compound A was assessed in vitro and in vivo across a variety of engineered or endogenously occurring single (ex19del or L858R) or double (ex19del/C797S or L858R/C797S) mutant systems. In addition, the CNS exposure of compound A was also characterised using a gold-standard rat brain slice method to assess free exposure in brain tissue.
Compound A is an EGFR inhibitor of formula I(a). Compound A was tested across a panel of in vitro biochemical, cell signalling, and proliferation assays for potency against EGFR L858R and ex19del single mutants and/or the corresponding C797S double mutants. Additionally, compound A was tested for in vivo activity in mice bearing human NSCLC cell line xenografts NCI-H3255 (L858R) and PC-9 (ex19del), and in a PC-9-derived ex19del/C797S double mutant knock-in xenograft. Free CNS penetration (Kp,uu) was determined in nontumour bearing mice and rats. Osimertinib and/or gefitinib were used as benchmark molecules across assays.

[3] = test system: PC-9 derivative with an ex19del/C797S in cis double mutation; assay: C797S double mutant knock-in xenograft, tumour growth inhibition; settings: 15 mg/kg BID, PC-9 ex19del/C797S xenograft
Description: as §1

[4] = format: in vivo
[5] = Caco-2 in vitro permeability (efflux ratio); format: in vitro ADME; settings: human, read-out: CAco-2 ER
BCRP = biological target: T2, BCRP (Homo sapiens, UniProt Q9UNQ0); assay: MDCK-BCRP efflux; format: in vitro ADME; settings: dog, read-out: MDCK-BCRP ER
T2 construct: expressed in transfected cells; host or cells: MDCK
T2 sequence (Q9UNQ0 1-655): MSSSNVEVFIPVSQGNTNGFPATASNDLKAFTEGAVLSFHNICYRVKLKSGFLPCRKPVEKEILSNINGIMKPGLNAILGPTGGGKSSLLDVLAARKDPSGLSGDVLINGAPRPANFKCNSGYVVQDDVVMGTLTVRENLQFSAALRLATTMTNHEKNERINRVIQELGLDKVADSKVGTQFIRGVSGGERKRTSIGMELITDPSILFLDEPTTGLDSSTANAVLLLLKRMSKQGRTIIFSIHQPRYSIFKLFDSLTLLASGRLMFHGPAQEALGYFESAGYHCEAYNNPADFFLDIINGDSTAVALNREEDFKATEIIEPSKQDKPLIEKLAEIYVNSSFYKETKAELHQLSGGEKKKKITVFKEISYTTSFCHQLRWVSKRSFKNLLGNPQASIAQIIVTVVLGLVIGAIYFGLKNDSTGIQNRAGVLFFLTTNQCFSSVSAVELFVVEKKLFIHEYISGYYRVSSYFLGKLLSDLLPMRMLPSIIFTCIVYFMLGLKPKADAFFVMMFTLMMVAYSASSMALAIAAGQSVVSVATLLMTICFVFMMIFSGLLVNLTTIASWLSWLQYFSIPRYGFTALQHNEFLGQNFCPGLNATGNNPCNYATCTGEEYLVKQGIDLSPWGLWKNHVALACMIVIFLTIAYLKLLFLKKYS

[6] = test system: pEGFR (phosphorylated EGFR, Tyr1068); assay: pEGFR (Tyr1068) inhibition, AlphaLISA; settings: compared with gefitinib
Description: as §1

pEGFR = assay: PC-9 (ex19del) PK/PD study, pEGFR pharmacodynamic readout; format: in vivo; settings: 15 mg/kg single dose, over a 12-hour BID dosing window

T1 sequence (P08183 whole entry): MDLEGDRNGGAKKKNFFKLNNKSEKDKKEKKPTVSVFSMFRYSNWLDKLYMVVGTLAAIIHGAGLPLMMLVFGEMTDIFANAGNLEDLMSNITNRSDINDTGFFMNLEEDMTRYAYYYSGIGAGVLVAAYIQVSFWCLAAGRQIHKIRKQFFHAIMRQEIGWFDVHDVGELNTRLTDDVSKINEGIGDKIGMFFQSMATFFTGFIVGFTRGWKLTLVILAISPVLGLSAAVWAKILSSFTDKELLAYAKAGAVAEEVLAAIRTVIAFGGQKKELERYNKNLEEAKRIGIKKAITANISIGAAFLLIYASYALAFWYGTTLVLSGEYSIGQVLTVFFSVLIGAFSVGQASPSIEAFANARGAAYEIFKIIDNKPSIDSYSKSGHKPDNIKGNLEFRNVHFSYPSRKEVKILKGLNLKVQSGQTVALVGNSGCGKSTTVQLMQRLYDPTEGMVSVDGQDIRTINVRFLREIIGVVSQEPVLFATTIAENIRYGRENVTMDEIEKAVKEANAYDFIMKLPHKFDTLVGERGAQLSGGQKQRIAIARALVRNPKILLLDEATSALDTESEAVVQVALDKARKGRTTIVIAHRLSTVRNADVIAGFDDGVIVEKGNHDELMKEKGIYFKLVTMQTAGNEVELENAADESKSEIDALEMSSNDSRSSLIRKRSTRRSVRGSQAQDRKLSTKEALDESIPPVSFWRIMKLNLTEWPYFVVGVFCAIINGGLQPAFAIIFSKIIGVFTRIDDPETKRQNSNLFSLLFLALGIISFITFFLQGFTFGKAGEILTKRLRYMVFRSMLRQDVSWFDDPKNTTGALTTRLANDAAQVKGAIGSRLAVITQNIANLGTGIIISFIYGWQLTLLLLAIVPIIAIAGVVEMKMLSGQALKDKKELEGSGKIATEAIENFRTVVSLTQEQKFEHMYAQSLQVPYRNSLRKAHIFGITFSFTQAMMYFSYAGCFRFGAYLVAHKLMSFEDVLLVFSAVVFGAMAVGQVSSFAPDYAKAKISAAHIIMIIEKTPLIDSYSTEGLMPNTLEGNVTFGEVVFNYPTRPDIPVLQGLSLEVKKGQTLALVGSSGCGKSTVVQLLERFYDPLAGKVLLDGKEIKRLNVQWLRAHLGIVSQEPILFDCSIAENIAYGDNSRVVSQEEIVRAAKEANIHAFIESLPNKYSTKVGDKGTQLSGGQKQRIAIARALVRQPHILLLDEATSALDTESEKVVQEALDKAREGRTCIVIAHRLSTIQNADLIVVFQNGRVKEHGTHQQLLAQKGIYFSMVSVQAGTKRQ

In the case of COCC[C@H]1CNC(=O)c2c1[nH]c(-c1ccnc(C)n1)c2Nc1cccc(Cl)c1OC [Compound A], the “tumour growth inhibition (TGI)” value (NCI-H3255 (L858R)) is reported as at least 90%, the efflux ratio at 1 µM (MDR1) is reported as 0.95 and the “inhibition of L858R, ex19del, L858R/C797S and ex19del/C797S mutants in proliferation assays” value (human NSCLC cell lines; human NSCLC cell lines) is reported as “high picomolar to low nanomolar”. The “selectivity for all tested mutants relative to wild-type EGFR” value (human NSCLC cell lines; human cancer cells) was over 150 x, the “tumour growth inhibition (TGI)” value (PC-9 (ex19del); 5-15 mg/kg BID, ex19del human tumour xenografts in mice) was at least 90% and the “antitumour activity in EGFR single mutant xenografts” value (PC-9 (ex19del); EGFR single mutant xenografts (ex19del or L858R), 15 mg/kg BID or 50 mg/kg QD in mice) was “regression”. The “inhibition of L858R, ex19del, L858R/C797S and ex19del/C797S mutants in proliferation assays” value ([1]; engineered Ba/F3) was “high picomolar to low nanomolar”, the “selectivity for all tested mutants relative to wild-type EGFR” value ([1]; engineered Ba/F3 cells) was over 150 x and the “brain exposure Kp,uu” value [2] was “comparable to Osimertinib”. For the same compound, the “in vivo tumour growth inhibition in the presence of C797S” value [3] was “retained in vivo tumour growth inhibition”, the “in vivo tumour growth inhibition in the presence of C797S” value ([3]; listed as compound A) was “no drop-off in antitumour activity” and the tolerability ([4]; 15 mg/kg BID or 50 mg/kg QD in mice) was “well tolerated”. For the same compound, the tolerability ([4]; 5-15 mg/kg BID, mice) was “well tolerated”, the efflux ratio at 1 µM [5] was 1.76 and the efflux ratio at 1 µM (BCRP) was 1.17. The “selectivity for all tested EGFR mutant cell lines relative to EGFR wild-type cell line NCI-H2073 (pEGFR inhibition IC50)” value [6] was “exceeded that of gefitinib” and the inhibition at 15 mg/kg (pEGFR) was over 50%.
